# Measurements from PMC5164911, “Comparative Analysis of the Interaction between Different Flavonoids and PDIA3” (Oxidative Medicine and Cellular Longevity, 2016).
# Where two headings read alike, the source gives them in different places.
# Legend:
# [1] = molecular target: T1, PDIA3 a′ domain (residues 377–505) (Homo sapiens, UniProt P30101); experiment: Fluorescence quenching titration of isolated a′ domain; format: binding; conditions: a′ domain 1 μM, reduced form; data not shown
# T1 construct: second redox-active domain (a′ domain, residues 377–505); made in house; host or cells: E. coli BL21 (vector pET29)
# T1 sequence (P30101 377-505): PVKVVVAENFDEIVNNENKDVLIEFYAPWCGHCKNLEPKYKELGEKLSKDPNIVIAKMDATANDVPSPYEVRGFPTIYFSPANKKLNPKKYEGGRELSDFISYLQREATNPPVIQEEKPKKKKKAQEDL
# Description: Human recombinant PDIA3 was cloned and expressed in E. coli strain BL21 using the expression vector pET21 (Novagen) as previously described. The coding sequence for the second redox-active domain (a′ domain, residues 377–505) was amplified by PCR as previously described and cloned in the expression vector pET29 (Novagen). Recombinant proteins were expressed in E. coli strain BL21 and purified by ammonium sulphate fractionation, ion exchange, and heparin chromatography. Protein purification was evaluated by SDS-PAGE and concentration was determined spectrophotometrically (PDIA3 ℇ 280 reduced form = 44,810 M^−1 cm^−1; a′ domain ℇ 280 reduced form = 14,400 M^−1 cm^−1).
# Quantitative analysis of the interaction between individual flavonoids and PDIA3 was performed by fluorimetric titration. Fluorescence spectra were recorded using a SPEX-FluoroMax spectrofluorimeter (Horiba Scientific) from 300 to 500 nm with excitation at 290 nm using a 10 mm path length quartz fluorescence cuvette and under continuous stirring. The excitation and emission slits were both set to 5 nm and scan speed was 120 nm·min^−1. […] Fluorescence spectra of appropriate blanks (flavonoids without proteins) were recorded under the same experimental conditions and subtracted from the corresponding flavonoid-protein system to correct the fluorescence background. Fluorescence intensities recorded at 338 nm were used for quenching analysis and data obtained for each flavonoid are the average of at least three independent titration experiments.
# Quenching analysis was performed on PDIA3 (0.5 μM), in the reduced form, by adding stepwise increasing concentration of each molecule and recording the protein fluorescence spectra. […] Quenching effect on protein and Stern-Volmer quenching constant (K SV) were calculated from the fluorescence intensities at 338 nm of protein alone (F 0) and in the presence of increasing concentration of each ligand molecule (F) using the Stern-Volmer equation [40]: (1) F0/F=1+KSVL, where L is the ligand concentration. […]
# PDIA3 = molecular target: T2, PDIA3 (Homo sapiens, UniProt P30101); experiment: Fluorescence quenching titration of PDIA3 intrinsic fluorescence; format: binding; conditions: for Stern-Volmer constant (K SV): 0.5∗10^−6 M PDIA3 in reduced conditions, pH 7.4, 25°C, flavonoid 0 to 10∗10^−6 M, mean and standard deviation; for bimolecular quenching rate constant (K q): K SV = K q τ0 with τ0 of the order of 10^−8 s; for binding constant (K b): equation of Bi et al., reiterative calculation of Sun et al.
# T2 construct: made in house; host or cells: E. coli BL21 (vector pET21)
# T2 sequence (P30101 25-505): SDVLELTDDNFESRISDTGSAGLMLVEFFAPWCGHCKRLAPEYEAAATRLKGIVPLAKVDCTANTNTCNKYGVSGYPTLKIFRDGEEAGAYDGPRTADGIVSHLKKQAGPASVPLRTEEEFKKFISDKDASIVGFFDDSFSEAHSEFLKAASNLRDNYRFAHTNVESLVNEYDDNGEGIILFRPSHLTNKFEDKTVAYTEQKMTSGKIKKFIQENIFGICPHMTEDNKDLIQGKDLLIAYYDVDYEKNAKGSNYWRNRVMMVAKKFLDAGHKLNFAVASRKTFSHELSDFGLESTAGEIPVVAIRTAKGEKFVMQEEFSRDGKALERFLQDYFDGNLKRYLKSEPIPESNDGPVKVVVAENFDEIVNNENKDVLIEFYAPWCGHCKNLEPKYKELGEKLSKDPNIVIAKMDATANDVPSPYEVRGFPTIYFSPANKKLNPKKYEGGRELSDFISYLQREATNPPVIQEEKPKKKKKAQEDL
# Method: Quantitative analysis of the interaction between individual flavonoids and PDIA3 was performed by fluorimetric titration. […] Briefly, solution of PDIA3 (0.5 μM) or a and a′ domains (1 μM) in phosphate buffered saline (PBS) containing DTT 0.1 mM and EDTA 0.2 mM were titrated in quartz cuvette by stepwise additions, at 5 min time intervals, of individual flavonoid solution (1 mM in PBS/ethanol 50 : 50 v/v freshly prepared from a 20 mM stock solution in DMSO). […] To minimize the inner-filter effect we limited the highest concentration reached in the titration test up to 10 μM. All experiments were carried out at 25°C. Each spectrum was the mean of three repeated scans. Fluorescence spectra of appropriate blanks (flavonoids without proteins) were recorded under the same experimental conditions and subtracted from the corresponding flavonoid-protein system to correct the fluorescence background.
# Quenching analysis was performed on PDIA3 (0.5 μM), in the reduced form, by adding stepwise increasing concentration of each molecule and recording the protein fluorescence spectra. For some flavonoids the analysis was extended to isolate a′ domain (1 μM), always in the reduced form. […] For each ligand molecule the Stern-Volmer quenching constant was obtained by linear regression of plots of F 0/F versus [L].
# The Stern-Volmer quenching constant may be expressed as K SV = K q τ 0, where K q is the quencher rate coefficient and τ 0 is the average lifetime of the emissive excited state of the protein in the absence of the quencher.
# The number of binding sites (n) and the binding constant (K b) were obtained by plotting log((F 0 − F)/F) versus log(1/([L t] − n(F 0 − F)[P t]/F 0)) using the reiterative calculation process described by Sun et al., assuming a similar affinity for each binding site.
# [2] = K d = 1/K b, reduced PDIA3, pH 7.4, 25°C, read-out: dissociation constant (K d)
Structure (SMILES),Affinity for isolated a′ domain [1],Stern-Volmer constant (K SV) (PDIA3),"bimolecular quenching rate constant (K q) (PDIA3; reduced PDIA3, pH 7.4, 25°C)",Kd (PDIA3; [2]),"binding constant (K b) (PDIA3; reduced PDIA3, pH 7.4, 25°C)","Kd (PDIA3; Figure 8, no unit printed in the picture, read-out: Dissociation constant (Kd))"
"COc1ccc(-c2cc(=O)c3c(OC)c(OC)c(OC)cc3o2)cc1O [Eupatorin-5-methyl ether, eupatorin-5-methyl-ether]",greatest affinity,90016 ± 1875 M⁻¹,9e+12 M⁻¹ s⁻¹,11.1 µM,90400 M⁻¹,–
"COc1ccc(-c2cc(=O)c3c(O)c(OC)c(OC)cc3o2)cc1O [Eupatorin, eupatorin]",greatest affinity,89362 ± 688 M⁻¹,8.94e+12 M⁻¹ s⁻¹,10.3 µM,96700 M⁻¹,10.3 µM
"O=c1cc(-c2ccc(O)cc2)oc2cc(O)cc(O)c12 [Apigenin, apigenin]",greatest affinity,54332 ± 1185 M⁻¹,5.43e+12 M⁻¹ s⁻¹,17 µM,58700 M⁻¹,–
